According to US8562949B2, “Radiolabeled dihydrotetrabenazine derivatives and their use as imaging agents” (The Trustees of the University of Pennsylvania, priority 2006, dated 2013):

Target: VMAT2 (Rattus norvegicus, UniProt Q01827)
Assay: Competition for [3H](±)TBZ binding in rat striatal homogenates
Set-up: The basal forebrain regions of rat and mouse brains were then dissected; from tissue; host or cells: rat striatum / basal forebrain homogenate
Conditions: Kd […] used for calculation

Chain of VMAT2 (Q01827 whole entry): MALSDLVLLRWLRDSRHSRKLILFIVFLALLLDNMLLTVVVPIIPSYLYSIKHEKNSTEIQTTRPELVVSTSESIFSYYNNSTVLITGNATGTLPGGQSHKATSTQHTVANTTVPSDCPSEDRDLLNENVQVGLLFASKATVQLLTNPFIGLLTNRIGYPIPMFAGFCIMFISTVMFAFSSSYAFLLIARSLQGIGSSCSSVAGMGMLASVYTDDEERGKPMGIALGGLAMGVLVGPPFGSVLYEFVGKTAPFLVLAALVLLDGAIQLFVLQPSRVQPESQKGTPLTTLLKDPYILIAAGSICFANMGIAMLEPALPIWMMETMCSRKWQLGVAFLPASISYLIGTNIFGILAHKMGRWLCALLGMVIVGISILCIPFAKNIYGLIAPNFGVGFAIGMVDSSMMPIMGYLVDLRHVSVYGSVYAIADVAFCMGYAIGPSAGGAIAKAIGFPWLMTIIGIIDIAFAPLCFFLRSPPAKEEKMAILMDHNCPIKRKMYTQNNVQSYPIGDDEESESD

Row | Compound | Ki ([3H](±)TBZ 1.0-1.5 nM) | Ki ([3H](±)-TBZ)
1 | COc1cc2c(cc1O)CCN1CC(CC(C)C)C(O)CC21 (racemic) [3,9-desmethyl-(±)DTBZ, (±)-9-O-Desmethyldihydrotetrabenazine, reference compound] | 11.8 ± 1.7 nM | –
2 | COc1cc2c(cc1OCCCF)CCN1CC(CC(C)C)C(O)CC21 (racemic) [Compound 6b, (±)-2-hydroxy-3-isobutyl-9-(3-fluoropropoxy)-10-methoxy-1,2,3,4,6,7-hexahydro-11bH-benzo[a]quinolizine] | – | 0.19 ± 0.04 nM
